Results: US7658941B2, “Warming and nonirritating lubricant compositions and method of comparing irritation” (Johnson & Johnson Consumer Companies, Inc., priority 2002, dated 2010)

Key:
[1] = test system: epithelial cells derived from human skin; type: cell-based
Protocol: The method designated as EpiDerm™ Skin Model assay uses the epithelial cells derived from human skin as target cells and is commercially available from the MatTek Corporation. […] The test materials are applied directly to the epithelial cell culture surface. […] The toxicity of the test material is evaluated on the basis of relative tissue viability vs time. The actual Tissue Viability is determined by NAD(P)H-dependent microsomal enzyme reduction of MTT in control and test article treated cultures. The negative control used in this assay was deionized water and the positive control was Triton X-100. The exposed cell cultures were incubated for 4, 8, 16 and 24 hours and assayed for reduction of MTT. […] Relative irritation in this assay is expressed by the percent survival rate of epiderm cells over a period of 24 hours. Products with higher relative survival rates are less toxic or less irritating while the ones with lower survival rates are more toxic or irritating.
The data is plotted as % Viable Cells vs the Exposure Time ranging from 4 to 24 hours.

[2] = Generation of warmth by mixing equal quantity with water; type: physicochemical; conditions: for Actual Temperature (° F.) / Rise in Temperature (° F.) (Expected Minus Actual): 20 ml mixed with 20 ml of water for two minutes
Protocol: The temperature of the product and that of water were recorded before water was added to the product. After the addition of water the mixture was mixed for two minutes and the actual temperature was recorded. Glycerin, Propylene Glycol and Honey are the ingredients in Composition 1. It is clear from Table 1 that when mixed with water the temperature of the mixture rises by 9.0° F for Glycerin, 13.5° F. for Propylene Glycol, 17.0° F. for Polyethylene Glycol 400 and 12.5° F. for composition Example 1 of this invention.
Calculated Rise in Temperature: In order to determine the expected rise in temperature from each composition, the percentage of each component in such composition was multiplied by the temperature increase generated by such component alone to obtain its expected contribution to the temperature increase. These values were added together to calculate the total expected temperature rise. These values were then compared with the actual temperature rise generated by each composition. For example, the calculated rise in temperature generated by the “K-Y Warming®”, composition in the table above was found as follows and compared with the actual temperature rise to determine the unexpectedly higher generation of warmth of the composition:
Compositions 10, 11 and 12 were tested in accordance with the following procedure to determine the extent to which said compositions generate warmth upon mixture with water. Data was generated by mixing 20 ml of each composition with 20 ml of water. The temperature of the composition and that of water were recorded before water was added to the composition After the addition of water the contents were mixed for two minutes and the actual temperature was recorded.

Molecule	% viable cells [1] [%]	Actual Temperature (° F.) [2] [° F.]	Rise in Temperature (° F.) (Expected Minus Actual) [2]	expected contribution of component to the temperature increase ([2]; in K-Y Warming (Composition 1))	expected contribution of component to the temperature increase ([2]; in Composition 10)
Triton X-100	22.4				
OCC(O)CO [Glycerin]		79.0	9.0	4.05	
Polysorbate 60		83.1	10.6		
CC(O)CO (stereo not drawn) [Propylene Glycol]		85.2	13.5	6.75	5.13
CCCCCCCCCCCCCC(=O)OC(C)C [Isopropyl Myristate]		75.2	0.7		
